Test results taken from paper doi:10.1101/2025.09.30.679465v1, “Large-Scale Structure-Based Virtual Screening Identifies Diverse KNa1.1 (KCNT1) Potassium Channel Inhibitors” (biorxiv, 2025).
Substitutions are numbered along the chain they refer to.

Biological target: T1, KNa1.1 WT/Y796H (Homo sapiens, UniProt Q5JUK3, Y796H)
T1 construct: gene KCNT1; full-length WT KNa1.1 and Y796H KNa1.1 subunits joined by self-cleaving T2A linker in pcDNA6
T1 sequence (Q5JUK3 1-1230): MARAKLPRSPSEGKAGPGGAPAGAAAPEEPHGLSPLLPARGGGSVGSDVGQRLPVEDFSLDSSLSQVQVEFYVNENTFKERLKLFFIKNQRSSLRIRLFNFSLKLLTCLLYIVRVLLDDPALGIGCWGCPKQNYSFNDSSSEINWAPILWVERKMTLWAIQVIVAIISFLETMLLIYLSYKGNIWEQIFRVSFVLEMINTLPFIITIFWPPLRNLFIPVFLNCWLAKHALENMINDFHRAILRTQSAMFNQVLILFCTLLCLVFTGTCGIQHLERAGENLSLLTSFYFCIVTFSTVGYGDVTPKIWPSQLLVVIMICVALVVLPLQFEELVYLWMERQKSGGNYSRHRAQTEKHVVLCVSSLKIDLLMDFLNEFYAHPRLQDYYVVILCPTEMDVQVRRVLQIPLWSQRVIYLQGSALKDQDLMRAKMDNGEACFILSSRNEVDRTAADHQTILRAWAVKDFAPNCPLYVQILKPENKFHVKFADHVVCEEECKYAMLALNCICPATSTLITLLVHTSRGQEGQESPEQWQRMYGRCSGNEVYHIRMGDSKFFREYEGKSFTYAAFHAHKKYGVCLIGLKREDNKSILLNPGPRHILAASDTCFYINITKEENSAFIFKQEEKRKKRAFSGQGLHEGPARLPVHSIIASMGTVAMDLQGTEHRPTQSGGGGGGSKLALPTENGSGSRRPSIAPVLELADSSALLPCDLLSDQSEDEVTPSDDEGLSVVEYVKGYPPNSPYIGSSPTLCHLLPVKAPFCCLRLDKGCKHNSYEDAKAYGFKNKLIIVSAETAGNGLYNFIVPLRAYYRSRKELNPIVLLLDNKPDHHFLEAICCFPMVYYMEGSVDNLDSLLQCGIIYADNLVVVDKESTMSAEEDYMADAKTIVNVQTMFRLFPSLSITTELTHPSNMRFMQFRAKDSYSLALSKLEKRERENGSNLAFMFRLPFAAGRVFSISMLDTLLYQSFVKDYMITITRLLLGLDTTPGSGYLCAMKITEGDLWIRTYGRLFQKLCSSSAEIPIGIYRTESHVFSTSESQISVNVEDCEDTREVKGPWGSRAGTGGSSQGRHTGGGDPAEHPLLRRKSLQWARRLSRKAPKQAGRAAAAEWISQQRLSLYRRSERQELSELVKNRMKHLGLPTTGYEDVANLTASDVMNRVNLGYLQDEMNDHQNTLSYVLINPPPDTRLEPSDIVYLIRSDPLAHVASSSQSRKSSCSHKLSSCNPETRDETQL
T1 sequence (Q5JUK3 1-1230 Y796H): T1 sequence (Q5JUK3 1-1230) with Y796H
Experiment: thallium flux (Thallos AM), HEK293
Assay type: cell-based
Description: thallium flux (Thallos AM), HEK293 on KNa1.1 WT/Y796H

**Q.** `CC(c1ccccc1)N1CCCN(c2cccc(NC(=O)Nc3cccc(Cl)c3)c2)C1=O` (stereo not shown) [compound 1, Cpd1] was tested. Which IC50 did it give?
**A.** 4.7 µM
